# Experimental data as given in patent US8097440B1, “Engineered microorganisms capable of producing target compounds under anaerobic conditions” (Gevo, Inc., priority 2008, dated 2012).
# Changes are numbered by the printed parent chain.
# Legend:
# [1] = target: T1, E. coli KARI Ec_IlvC variant Ec_IlvC^B8-his6 (Q110V, S78D), SEQ ID NO: 27 (Escherichia coli, UniProt P05793, Q110V/S78D); assay: KARI cuvette assay, purified Ec_IlvC^B8-his6; type: biochemical
# T1 sequence (P05793 with tags, fused parts or gaps S78D/Q110V): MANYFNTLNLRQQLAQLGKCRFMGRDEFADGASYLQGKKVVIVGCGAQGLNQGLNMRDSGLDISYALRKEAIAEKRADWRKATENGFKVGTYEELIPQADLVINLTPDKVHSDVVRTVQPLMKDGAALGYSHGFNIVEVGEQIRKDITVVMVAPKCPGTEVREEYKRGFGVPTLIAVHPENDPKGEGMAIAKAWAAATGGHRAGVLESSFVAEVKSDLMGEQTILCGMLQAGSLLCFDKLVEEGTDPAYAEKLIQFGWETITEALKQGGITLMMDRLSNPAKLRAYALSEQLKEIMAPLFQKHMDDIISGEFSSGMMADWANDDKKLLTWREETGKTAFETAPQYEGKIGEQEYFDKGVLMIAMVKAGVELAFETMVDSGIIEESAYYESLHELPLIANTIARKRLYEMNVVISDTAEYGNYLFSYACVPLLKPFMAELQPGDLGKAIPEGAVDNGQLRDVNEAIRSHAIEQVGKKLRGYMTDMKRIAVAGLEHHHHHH
# Method: (§1) KARI cuvette assay: KARI activity was assayed kinetically by monitoring the decrease in NAD(P)H concentration by measuring the absorbance at 340 nm. A reaction buffer was prepared containing 250 mM potassium phosphate pH 7, 1 mM DTT and 10 mM MgCl2. Cell pellets were resuspended (0.25 g wet weight/mL buffer) in 250 mM potassium phosphate (KPi) buffer containing 1 mM DTT and 10 mM MgCl2. The resuspended cells were lysed by sonication for 1 min with a 50% duty cycle and pelleted at 11000×g and 4° C. for 15 min. A reaction mixture consisting of 910 μl reaction buffer, 50 μl acetolactate, and 20 μl lysate was prepared in a cuvette. The reaction was initiated by addition of 20 μL of 10 mM NAD(P)H. A substrate free control was conducted using reaction buffer without the addition of acetolactate.
# (§2) Purification of KARI: Cell pellets used for purification were resuspended in purification buffer A (20 mM Tris, 20 mM imidazol, 100 mM NaCl, 10 mM MgCl2, pH 7.4). KARI was purified by IMAC (Immobilized metal affinity chromatography) over a 1 ml Histrap High Performance (histrap HP) column pre-charged with Nickel (GE Healthcare) using an Akta FPLC system (GE Healthcare). […]
# [2] = target: T2, E. coli KARI Ec_IlvC variant Ec_IlvC^Q110V-his6 (Q110V), SEQ ID NO: 23 (Escherichia coli, UniProt P05793, Q110V); assay: KARI cuvette assay, purified Ec_IlvC^Q110V-his6; type: biochemical; details: relative to Ec_IlvC^his6 with NADPH
# T2 sequence (P05793 with tags, fused parts or gaps Q110V): T1 sequence (P05793 with tags, fused parts or gaps S78D/Q110V) with D78S
# Method: as §1, §2
smiles,measurement,setting,value
"NC(=O)C1=CN([C@@H]2O[C@H](COP(=O)(O)OP(=O)(O)OC[C@H]3O[C@@H](n4cnc5c(N)ncnc54)[C@H](O)[C@@H]3O)[C@@H](O)[C@H]2O)C=CC1 [NADH, nicotinamide adenine dinucleotide]",kcat/KM,"[1]; purified, acetolactate as substrate",31775 M⁻¹ s⁻¹
same,(kcat/KM with NADH)/(kcat/KM of Ec_IlvC^his6 with NADPH),[1]; relative to Ec_IlvC^his6 with NADPH,36%
same,(kcat/KM with NADH)/(kcat/KM of Ec_IlvC^his6 with NADPH),[2],28%
